Measurements from US12485121B2, “Antiviral agents for the treatment and prevention of HIV infection” (Pharmasyntez, Joint Stock Company, priority 2020, dated 2025).

system: HIV-1 subtype A strain 12RU 69831; experiment: Inhibition of HIV-1 reproduction / protection of infected MT-4 cells (living cell concentration, p24 production); format: cell-based; conditions: Human immunodeficiency virus 1, MT4, MT-4 cells infected with HIV-1 at a constant virus dose of 300 CCID50; read-out: Activity against HIV-1 12RU 69831 strain (subtype A)
Protocol: Evaluation of HIV reproduction inhibition/protection of human cells by anti-HIV products of the present invention was conducted by measuring change in living cells concentration in experimental wells with MT-4 cells infected with HIV-1, as well as by the production of viral protein p24 with adding different concentrations of compounds according to the present invention. Antiviral activity of products against HIV-1 subtype A strain 12RU 69831 was determined, when the cell culture was infected with a constant dose of virus, corresponding to 300 CCID50.

| IC50 [µM] | SMILES |
| --- | --- |
| 10.5 | Cc1cc(C#N)cc(C)c1Oc1nc(Nc2ccc(C#N)cc2)nc2c1CCN(C(=O)CCl)CC2 [BB0274133, 4-((7-(2-Chloroacetyl)-2-((4-cyanophenyl)amino)-6,7,8,9-tetrahydro-5H-pyrimido[4,5-d]azepine-4-yl)oxy)-3,5-dimethylbenzonitrile] |
| 18.7 | Cc1cc(C#N)cc(C)c1Oc1nc(Nc2ccc(C#N)cc2)nc2c1CN(C(=O)C(N)Cc1cn[nH]c1)CC2 (centres unmarked) [BB0274121, 4-((6-(2-Amino-3-(1H-pyrazole-4-yl)propanoyl)-2-((4-cyanophenyl)amino)-5,6,7,8-tetrahydropyrido[4,3-d]pyrimidine-4-yl)oxy)-3,5-dimethylbenzonitrile] |
| 45.3 | Cc1cc(C#N)cc(C)c1Oc1nc(Nc2ccc(C#N)cc2)nc2c1CN(C(=O)[C@H](NC(=O)OC(C)(C)C)C(C)C)CC2 [BB0274126, (R)-Tert-butyl (1-(4-(4-cyano-2,6-dimethylphenoxy)-2-((4-cyanophenyl)amino)-7,8-dihydropyrido[4,3-d]pyrimidine-6(5H)-yl)-3-methyl-1-oxobutane-2-yl)carbamate] |
| 1.63 | C=CCN1CCc2nc(Nc3ccc(C#N)cc3)nc(Oc3c(C)cc(C#N)cc3C)c2CC1 [BB0274144, 4-((7-Allyl-2-((4-cyanophenyl)amino)-6,7,8,9-tetrahydro-5H-pyrimido[4,5-d]azepine-4-yl)oxy)-3,5-dimethylbenzonitrile] |
| 34.8 | COC(=O)C(=O)N1CCc2nc(Nc3ccc(C#N)cc3)nc(Oc3c(C)cc(C=O)cc3C)c2CC1 [BB0274312, Methyl 2-{2-[(4-cyanophenyl)amino]-4-(4-formyl-2,6-dimethylphenoxy)-5H,6H,7H,8H,9H-pyrimido [4,5-d]azepine-7-yl}-2-oxoacetate] |
| 2.07 | Cc1cc(C#N)cc(C)c1Oc1nc(Nc2ccc(C#N)cc2)nc2c1CN(C(=O)[C@H](N)CO)CC2 [BB0274123, (R)-4-((6-(2-Amino-3-hydroxypropanoyl)-2-((4-cyanophenyl)amino)-5,6,7,8-tetrahydropyrido[4,3-d]pyrimidine-4-yl)oxy)-3,5-dimethylbenzonitrile] |
| 0.414 | COCC(C)N1CCc2nc(Nc3ccc(C#N)cc3)nc(Oc3c(C)cc(C#N)cc3C)c2CC1 (centres unmarked) [BB0274080] |
| 359 | Cc1cc(C#N)cc(C)c1Oc1nc(Nc2ccc(C#N)cc2)nc2c1CN(S(N)(=O)=O)CC2 [BB0274239, 4-(4-Cyano-2,6-dimethylphenoxy)-2-[(4-cyanophenyl)amino]-5H,6H,7H,8H-pyrido[4,3-d]pyrimidine-6-sulfonamide] |
| 0.324 | Cc1cc(C#N)cc(C)c1Oc1nc(Nc2ccc(C#N)cc2)nc2c1CCN(CCN1CCOCC1)CC2 [BB0274118, 4-((2-((4-Cyanophenyl)amino)-7-(2-morpholineethyl)-6,7,8,9-tetrahydro-5H-pyrimido[4,5-d]azepine-4-yl)oxy)-3,5-dimethylbenzonitrile] |
| 342 | Cc1cc(C#N)cc(C)c1Oc1nc(Nc2ccc(C#N)cc2)nc2c1CN(C(=O)[C@H](Cc1ccc(O)cc1)NC(=O)OC(C)(C)C)CC2 [BB0274124, (S)-Tert-butyl (1-(4-(4-cyano-2,6-dimethylphenoxy)-2-((4-cyanophenyl)amino)-7,8-dihydropyrido[4,3-d]pyrimidine-6(5H)-yl)-3-(4-hydroxyphenyl)-1-oxopropane-2-yl)carbamate] |
| 103 | Cc1cc(C#N)cc(C)c1Oc1nc(Nc2ccc(C#N)cc2)nc2c1CN(C(=O)[C@@H](CO)NC(=O)OC(C)(C)C)CC2 [BB0274119, (R)-Tert-butyl (1-(4-(4-cyano-2,6-dimethylphenoxy)-2-((4-cyanophenyl)amino)-7,8-dihydropyrido[4,3-d]pyrimidine-6(5H)-yl)-3-hydroxy-1-oxopropane-2-yl)carbamate] |
| 0.0125 | Cc1cc(C#N)cc(C)c1Oc1nc(Nc2ccc(C#N)cc2)nc2c1CCN(C(=O)Cn1ccnc1)CC2 [BB0274227, 4-((7-(2-(1H-Imidazole-1-yl)acetyl)-2-((4-cyanophenyl)amino)-6,7,8,9-tetrahydro-5H-pyrimido[4,5-d]azepine-4-yl)oxy)-3,5-dimethylbenzonitrile] |

The next lines start with the compound.

| SMILES | IC50 [µM] |
| --- | --- |
| Cc1cc(C#N)cc(C)c1Oc1nc(Nc2ccc(C#N)cc2)nc2c1CNCC2 [BB0273963, 4-((2-((4-Cyanophenyl)amino)-5,6,7,8-tetrahydropyrido[4,3-d]pyrimidine-4-yl)oxy)-3,5-dimethylbenzonitrile] | 7.56 |
| Cc1cc(C#N)cc(C)c1Oc1nc(Nc2ccc(C#N)cc2)nc2c1CN(C(=O)C(Cc1cnn(C(=O)OC(C)(C)C)c1)NC(=O)OC(C)(C)C)CC2 (centres unmarked) [BB0274122, Tert-butyl 4-(2-((tert-butoxycarbonyl)amino)-3-(4-(4-cyano-2,6-dimethylphenoxy)-2-((4-cyanophenyl)amino)-7,8-dihydropyrido[4,3-d]pyrimidine-6(5H)-yl)-3-oxopropyl)-1H-pyrazole-1-carboxylate] | 18.9 |
| Cc1cc(/C=C/C(=O)O)cc(C)c1Oc1nc(Nc2ccc(C#N)cc2)nc2c1CCN(C(=O)OC(C)(C)C)CC2 [BB0273969, (E)-3-(4-((7-(Tert-butoxycarbonyl)-2-((4-cyanophenyl)amino)-6,7,8,9-tetrahydro-5H-pyrimido[4,5-d]azepine-4-yl)oxy)-3,5-dimethylphenyl)acrylic acid] | 10700 |
| Cc1cc(C#N)cc(C)c1Oc1nc(Nc2ccc(C#N)cc2)nc2c1CCN(C(=O)C1CCN(C(=O)OC(C)(C)C)CC1)CC2 [BB0274025, Tert-butyl 4-(4-(4-cyano-2,6-dimethylphenoxy)-2-((4-cyanophenyl)amino)-6,7,8,9-tetrahydro-5H-pyrimido[4,5-d]asein-7-carbonyl)piperidine-1-carboxylate] | 3220 |
| Cc1cc(C#N)cc(C)c1Oc1nc(Nc2ccc(C#N)cc2)nc2c1CCN(C)C2 [BB0273774, 4-((2-((4-Cyanophenyl)amino)-7-methyl-5,6,7,8-tetrahydropyrido[3,4-d]pyrimidine-4-yl)oxy)-3,5-dimethylbenzonitrile] | 224 |
| Cc1cc(C#N)cc(C)c1Oc1nc(Nc2ccc(C#N)cc2)nc2c1CCN(Cc1ccncc1)CC2 [BB0274016, 4-((2-((4-Cyanophenyl)amino)-7-(pyridine-4-ylmethyl)-6,7,8,9-tetrahydro-5H-pyrimido[4,5-d]azepine-4-yl)oxy)-3,5-dimethylbenzonitrile] | 4880 |
| Cc1cc(C#N)cc(C)c1Oc1nc(Nc2ccc(C#N)cc2)nc2c1CCN(Cc1cccnc1)CC2 [BB0274015, 4-((2-((4-Cyanophenyl)amino)-7-(pyridine-3-ylmethyl)-6,7,8,9-tetrahydro-5H-pyrimido[4,5-d]azepine-4-yl)oxy)-3,5-dimethylbenzonitrile] | 29.9 |
| Cc1cc(C#N)cc(C)c1Oc1nc(Nc2ccc(C#N)cc2)nc2c1CN(C(=O)OC(C)(C)C)CC2 [BB0273961, Tert-butyl 4-(4-cyano-2,6-dimethylphenoxy)-2-((4-cyanophenyl)amino)-7,8-dihydropyrido[4,3-d]pyrimidine-6(5H)-carboxylate] | 42.3 |
| Cc1cccc(C)c1Oc1nc(Nc2ccc(C#N)cc2)nc2c1CCN(Cc1ccccc1)C2 [BB0273459] | 74.3 |
| Cc1cc(C#N)cc(C)c1Oc1nc(Nc2ccc(C#N)cc2)nc2c1CCN(C(=O)c1ccncc1)CC2 [BB0274011, 4-((2-((4-Cyanophenyl)amino)-7-isonicotinoyl-6,7,8,9-tetrahydro-5H-pyrimido[4,5-d]azepine-4-yl)oxy)-3,5-dimethylbenzonitrile] | 27.1 |
| Cc1cc(C#N)cc(C)c1Oc1nc(Nc2ccc(C#N)cc2)nc2c1CCN(Cc1cccn1C)CC2 [BB0274074] | 83.3 |
